Structures are written as SMILES.

The target in this assay is T1, SIRT1 (Homo sapiens, UniProt Q96EB6).
T1 sequence (Q96EB6 1-747): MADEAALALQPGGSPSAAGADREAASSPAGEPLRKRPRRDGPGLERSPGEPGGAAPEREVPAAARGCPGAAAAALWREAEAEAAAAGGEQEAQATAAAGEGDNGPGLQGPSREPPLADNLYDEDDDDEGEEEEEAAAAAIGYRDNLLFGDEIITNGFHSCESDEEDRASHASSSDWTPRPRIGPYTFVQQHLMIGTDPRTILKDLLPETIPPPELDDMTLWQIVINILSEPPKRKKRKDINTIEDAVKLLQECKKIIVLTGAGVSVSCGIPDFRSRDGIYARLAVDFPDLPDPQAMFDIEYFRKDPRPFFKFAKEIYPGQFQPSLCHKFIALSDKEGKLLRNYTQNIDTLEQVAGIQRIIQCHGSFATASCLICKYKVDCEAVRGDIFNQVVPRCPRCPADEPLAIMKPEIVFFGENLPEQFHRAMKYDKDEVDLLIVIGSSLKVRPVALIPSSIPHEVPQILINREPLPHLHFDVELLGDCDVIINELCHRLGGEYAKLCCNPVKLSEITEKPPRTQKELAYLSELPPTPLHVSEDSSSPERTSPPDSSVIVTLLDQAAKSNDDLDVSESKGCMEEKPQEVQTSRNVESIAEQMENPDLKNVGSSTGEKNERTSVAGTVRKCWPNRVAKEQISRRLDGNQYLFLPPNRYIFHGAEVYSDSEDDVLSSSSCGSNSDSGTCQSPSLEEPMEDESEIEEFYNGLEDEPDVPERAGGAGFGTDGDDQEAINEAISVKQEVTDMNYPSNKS
Briefly: Trp mass spectrometry assay of SIRT1 activation. Type of assay: biochemical. The note with it: for TRP Activity (EC1.5) / Emax: Trp peptide assay; for TRP Activity (EC1.5): EC1.5 = concentration that results in 150% activation of SIRT1; for Emax: maximum activity relative to control (100%), read-out: TRP MAX RESP (percent maximum fold activation). In outline:
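Activation read-out: mass-spec measurement of O-acetyl-ADP-ribose or deacetylated Trp peptide versus compound-free controls, giving EC1.5 and Percent Maximum Activation. Reactions ran 25 min at 25 °C, pH 7.5, with 120 μM βNAD+, 0.5 μM acetylated p53-derived peptide and 10 nM His-tagged SIRT1.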

Setting [1] is: concentration giving 150% activation of SIRT1, Trp peptide substrate.
[2] abbreviates: Trp mass spectrometry assay, EC1.5 = concentration of test compound that results in 150% activation of SIRT1.
Where [3] appears, read: Trp mass spectrometry assay, concentration of test compound giving 150% activation of SIRT1.

For the compound `O=C(Nc1ccccn1)N1c2nc(N3CCC[C@H]3C(F)(F)F)ccc2N2CC[C@H]1C2` [(9S)-N-(pyridin-2-yl)-5-[(2S)-2-(trifluoromethyl)pyrrolidin-1-yl]-1,6,8-triazatricyclo[7.2.1.0 {2,7}]dodeca-2(7),3,5-triene-8-carboxamide], the “TRP Activity (EC1.5)” value was “B (B (EC1.5 1-25 μM))” and the Emax is above 150%.

Take `Cc1ncc(-c2ccc3c(n2)N(C(=O)Nc2cccnc2)[C@H]2CCN3C2)cc1F` [(9S)-5-(5-fluoro-6-methylpyridin-3-yl)-N-(pyridin-3-yl)-1,6,8-triazatricyclo[7.2.1.0 {2,7}]dodeca-2(7),3,5-triene-8-carboxamide]: the “TRP Activity (EC1.5)” value is given as “B (B (EC1.5 1-25 μM))” and the Emax is above 150%.

As to `O=C(NCCn1ccnc1)N1c2nc(-c3cccc(C(F)(F)F)c3)ccc2N2CC[C@H]1C2` [Example 661], the “Tryp AVG EC1.5 (μM)” value under setting [1] is “C (C (EC1.5>25 μM))”.

With `O=C(Nc1cccnc1)N1c2nc(-c3cncc(F)c3)ccc2N2CCC1CC2` [Example 572], under setting [2], the “Tryp AVG EC1.5 (μM)” value is “B (B (EC1.5 1-25 μM))”. Regarding `O=C(Nc1cccc(-c2cnco2)c1)N1c2nc(-c3cncc(C(F)(F)F)c3)ccc2N2C[C@@H](O)[C@H]1C2` [Example 709], the “Tryp AVG EC1.5 (μM)” value under setting [1] is on record as “A (A (EC1.5<1 μM))”.

`Cc1ccc(-c2cc(C)c3c(n2)N(C(=O)Nc2cccnc2)[C@H]2CCN3C2)cn1` [(9S)-3-methyl-5-(6-methylpyridin-3-yl)-N-(pyridin-3-yl)-1,6,8-triazatricyclo[7.2.1.0^{2,7}]dodeca-2,4,6-triene-8-carboxamide]: the “TRP Activity (EC1.5)” value is “B (B (EC1.5 1-25 μM))” and the Emax is above 150%. As for `N#Cc1ccccc1-c1ccc2c(n1)N(C(=O)Nc1ccccn1)[C@H]1CCCN2C1` [Example 449], the “Tryp AVG EC1.5 (μM)” value under setting [2] was “B (B (EC1.5 1-25 μM))”. As for `O=C(Nc1ccc(Br)c(-c2cnco2)c1)N1c2nc(-c3cccc(C(F)(F)F)c3)ccc2N2CC[C@H]1C2` [Example 672], the “Tryp AVG EC1.5 (μM)” value under setting [1] is reported as “A (A (EC1.5<1 μM))”. For the compound `CN(C)c1cc(-c2ccc3c(n2)N(C(=O)Nc2cnccn2)[C@H]2CCN3C2)ccn1` [(9S)-5-[2-(dimethylamino)pyridin-4-yl]-N-(pyrazin-2-yl)-1,6,8-triazatricyclo[7.2.1.0 {2,7}]dodeca-2(7),3,5-triene-8-carboxamide], the “TRP Activity (EC1.5)” value is on record as “B (B (EC1.5 1-25 μM))” and the Emax was above 150%. With `O=C(Nc1cncc(-c2cnco2)c1)N1c2nc(-c3cncc(F)c3)ccc2N2CC[C@H]1C2` [Example 716], the “Tryp AVG EC1.5 (μM)” value under setting [1] is “B (B (EC1.5 1-25 μM))”. Turning to `O=C(Nc1cnccn1)N1c2nc(-c3cccc(C(F)(F)F)c3)ccc2N2C[C@@H](O)[C@H]1C2` [Example 645], the “Tryp AVG EC1.5 (μM)” value under setting [1] was “A (A (EC1.5<1 μM))”. The same measure, in the same setting: for `O=C(Nc1ccc(N2CCCCC2)cc1)N1c2nc(-c3cccc(C(F)(F)F)c3)ccc2N2CC[C@H]1C2` [Example 628] the value was “B (B (EC1.5 1-25 μM))”. Turning to `O=C(Nc1cnccn1)N1c2nc(-c3cncc(F)c3)ccc2N2CCC1CC2` [Example 555], under setting [2], the “Tryp AVG EC1.5 (μM)” value is “B (B (EC1.5 1-25 μM))”. `O=C(Nc1cccc(-c2ccccc2)c1)N1c2nc(-c3cccc(C(F)(F)F)c3)ccc2N2CC[C@H]1C2` [Example 625]: the “Tryp AVG EC1.5 (μM)” value under setting [1] is “A (A (EC1.5<1 μM))”. As to `O=C(Nc1cnccn1)N1c2cc(N3CCCC(C(F)(F)F)C3)ccc2N2CCC[C@H]1C2` (stereo partly drawn), the “TRP Activity (EC1.5)” value is “A (A (EC1.5<1 μM))” and the Emax is above 150%. As to `O=C(Nc1cccc(OC[C@H](O)CO)n1)N1c2nc(-c3cccc(C(F)(F)F)c3)ccc2N2CC[C@H]1C2` [Example 819], the “Tryp AVG EC1.5 (μM)” value under setting [1] is given as “A (A (EC1.5<1 μM))”.

Turning to `O=C(Nc1ccncn1)N1c2nc(-c3cccnc3)ccc2N2CCC[C@H]1C2` [Example 456], the “Tryp AVG EC1.5 (μM)” value under setting [2] was “B (B (EC1.5 1-25 μM))”.

For `O=C(Nc1cc(-c2cnco2)ccn1)N1c2nc(-c3cncc(F)c3)ccc2N2CC[C@H]1C2` [Example 727], the “Tryp AVG EC1.5 (μM)” value under setting [1] is on record as “A (A (EC1.5<1 μM))”.

Take `Cc1ccc(-c2ccc3c(n2)N(C(=O)NCC(C)(C)C)[C@H]2CCN3C2)cn1` [(9S)-N-(2,2-dimethylpropyl)-5-(6-methylpyridin-3-yl)-1,6,8-triazatricyclo[7.2.1.0 {2,7}]dodeca-2(7),3,5-triene-8-carboxamide]: the “TRP Activity (EC1.5)” value is recorded as “C (C (EC1.5>25 μM))” and the Emax is below 150%. For `Cc1cc(-c2ccc3c(n2)N(C(=O)Nc2ccc4c(cnn4C)c2)[C@H]2CCN3C2)ccn1` [Example 502], the “Tryp AVG EC1.5 (μM)” value under setting [2] is “A (A (EC1.5<1 μM))”. On to `O=C(NC1CCCOC1)c1ccc2c(n1)N(C(=O)Nc1ccccn1)[C@H]1CCN2C1` (stereo partly drawn) [(9S)-5-N-(oxan-3-yl)-8-N-(pyridin-2-yl)-1,6,8-triazatricyclo[7.2.1.0 {2,7}]dodeca-2(7),3,5-triene-5,8-dicarboxamide], for which the “TRP Activity (EC1.5)” value is on record as “B (B (EC1.5 1-25 μM))” and the Emax was above 150%. As to `O=C(Nc1cccc(CN2CCNCC2)c1)N1c2nc(-c3cccc(C(F)(F)F)c3)ccc2N2CC[C@H]1C2` [Example 731], under setting [1], the “Tryp AVG EC1.5 (μM)” value is “A (A (EC1.5<1 μM))”. In the case of `COc1cc(NC(=O)N2c3nc(-c4cncc(F)c4)ccc3N3CCC2CC3)ncn1` [Example 579], the “Tryp AVG EC1.5 (μM)” value under setting [2] is given as “B (B (EC1.5 1-25 μM))”.

With `CCCC(=O)c1cccc(NC(=O)N2c3nc(-c4cccc(C(F)(F)F)c4)ccc3N3CC[C@H]2C3)c1` [Example 736], under setting [1], the “Tryp AVG EC1.5 (μM)” value is recorded as “A (A (EC1.5<1 μM))”. In the case of `COc1cc(NC(=O)N2c3nc(-c4cncc(C(F)(F)F)c4)ccc3N3C[C@@H](O)[C@H]2C3)nc(OC)n1` [Example 704], the “Tryp AVG EC1.5 (μM)” value under setting [1] was “B (B (EC1.5 1-25 μM))”. On to `NCc1ccc(NC(=O)N2c3nc(-c4cccc(C(F)(F)F)c4)ccc3N3CC[C@H]2C3)cc1` [Example 429], for which the “Tryp AVG EC1.5 (μM)” value under setting [2] was “B (B (EC1.5 1-25 μM))”.

`O=C(Nc1ccccn1)N1c2nc(-c3cc(F)cc(F)c3)ccc2N2CC[C@H]1C2` [Example 344]: under setting [3], the “Tryp AVG EC1.5 (μM)” value is “A (A (EC1.5<1 μM))”. On to `C[C@H]1CN(c2ccc3c(n2)N(C(=O)Nc2cnccn2)[C@H]2CCN3C2)CCO1` [(9S)-5-[(2S)-2-methylmorpholin-4-yl]-N-(pyrazin-2-yl)-1,6,8-triazatricyclo[7.2.1.0 {2,7}]dodeca-2,4,6-triene-8-carboxamide], for which the “TRP Activity (EC1.5)” value is listed as “B (B (EC1.5 1-25 μM))” and the Emax is above 150%. Consider `O=C(Nc1ccccn1)N1c2nc(-c3cncc(Cl)c3)ccc2N2CCC[C@H]1C2` [Example 406], for which the “Tryp AVG EC1.5 (μM)” value under setting [3] is “A (A (EC1.5<1 μM))”. As for `O=C(Nc1cnccn1)N1c2nc(N3CCO[C@H](C(F)(F)F)C3)ccc2N2CC[C@H]1C2` [drawing 1226, (9S)-N-(pyrazin-2-yl)-5-[(2S)-2-(trifluoromethyl)morpholin-4-yl]-1,6,8-triazatricyclo[7.2.1.0 {2,7}]dodeca-2(7),3,5-triene-8-carboxamide], the “TRP Activity (EC1.5)” value is “B (B (EC1.5 1-25 μM))” and the Emax was above 150%. `COc1cc(NC(=O)N2c3nc(-c4cccc(Cl)c4)ccc3N3C[C@@H](O)[C@H]2C3)ncn1` [Example 679]: the “Tryp AVG EC1.5 (μM)” value under setting [1] was “B (B (EC1.5 1-25 μM))”.

For the compound `Cc1cc(C)c(-c2ccc3c(n2)N(C(=O)Nc2cccnc2)[C@H]2CCN3C2)cn1` [(9S)-5-(4,6-dimethylpyridin-3-yl)-N-(pyridin-3-yl)-1,6,8-triazatricyclo[7.2.1.0 {2,7}]dodeca-2(7),3,5-triene-8-carboxamide], the “TRP Activity (EC1.5)” value is given as “B (B (EC1.5 1-25 μM))” and the Emax is above 150%.

The record behind these values is patent publication US9834558B2, “Substituted bridged urea analogs as sirtuin modulators” (GLAXOSMITHKLINE LLC, priority 2013, dated 2017).
